Where “and” joins values, the source holds several entries; their conditions need not be identical. Equal entries are not always repeated.
How the values were obtained:
[1] = Renal clearance efficiency studies (urine HPLC); type: in vivo; conditions: healthy mice, i.v.
Method: NCr nude mice were i.v. injected with the uncaged fluorophores (CMe, CP2, CP5 and CCD, 8 μmol kg^−1 body weight), MRPs1-3 (8 μmol kg^−1 body weight) or MRPD (32 μmol kg^−1 body weight) and placed in metabolic cages (3 mice were analysed for each sample). […] Urine was collected at 1, 3, 6, 9 and 24 h post-injection, centrifuged at 4500 r.p.m. for 8 min and filtered by 0.22 μm syringe filter. Excretion of the uncaged fluorophores and MRPs in the urine was quantified using HPLC. Mice were sacrificed to image resected organs after 24 h urine collection. Fluorescence intensities for resected organs were analysed by the ROI analysis using the Living Image 4.3 Software. Major organs were collected, homogenised in PBS buffer (10 mM, pH 7.4) and centrifuged at 4500 r.p.m for 15 min to remove insoluble components. Fluorescence intensities of the final supernatants were measured on fluorescence spectrophotometer.
Mice were i.v. injected with ADR (30 μmol kg^−1 body weight) and placed in metabolic cages. Urine was collected at 1, 3, 6, 9 and 24 h post-injection, diluted in PBS and centrifuged at 4500 r.p.m. for 10 min and filtered by 0.22 μm syringe filter. ADR in the urine was quantified using HPLC. The absorption and fluorescence spectra were measured for the urine samples. […]

[2] = In vivo biodistribution by NIRF imaging; parameters: species or system mice; conditions: i.v., 8 μmol kg^−1 (MRPD 32 μmol kg^−1)
Method: All animal studies were performed in compliance with the guidelines set by the Institutional Animal Care and Use Committee (IACUC), Sing Health. Female nude mice (Tac:Cr:(NCr)-Fox1nu, 8 weeks old) were obtained from InVivos Pte Ltd (Singapore). Aged female nude mice (25 weeks old) were obtained by feeding after receive at 8 weeks old. Female Balb/c mice (10 weeks old), male type 2 diabetic BKS-db mice (BKS-Lepr^em2Cd479 with a C57BLKS/J background, 12 weeks old) and male nondiabetic C57BLKS/J wild-type mice (12 weeks) were obtained from Nanjing Biomedical Research Institute of Nanjing University (Nanjing, China). NCr nude mice were i.v. injected with 0.2 ml saline (control), the uncaged fluorophores (CMe, CP2, CP5 and CCD, 8 μmol kg^−1 body weight) or MRPD (32 μmol kg^−1 body weight), and imaged using the IVIS spectrum imaging system at 30 and 60 min post-injection. The abdominal cavity and resected organs from mice were imaged after sacrifice at t=60 min post-injection. Fluorescence images were acquired using the IVIS spectrum imaging system with excitation at 675±10 nm (640±10 nm for MRPD) and emission at 720±10 nm (760±10 nm for MRPD). Fluorescence intensities for each organ were analysed by the region of interest (ROI) analysis using the Living Image 4.3 Software (3 mice were analysed for each sample).

[3] = Photophysical properties (absorption, fluorescence, quantum yield); type: physicochemical
Method: Optical measurement. […] The ADR solution (30 μM) was incubated with KO2 (60 μM) and NAG (40 mU), respectively, in PBS (10 mM, pH 7.4) at 37° C. […] Fluorescence images were acquired using the IVIS spectrum imaging system with excitation at 675±10 nm (640±10 nm for MRPD) and emission at 720±10 nm (760±10 nm for MRPD) and the acquisition time of 0.1 s. Chemiluminescence images were acquired under bioluminescence mode with open filter and the acquisition time of 1 s. The sensing capability of MRPs was analysed through HPLC. UV-Vis and fluorescence spectra of the uncaged fluorophores solution (30 μM) in PBS (10 mM, pH 7.4) were recorded on UV-Vis and fluorescence spectrophotometers.
Measurement of fluorescence quantum yields. ICG was used as a standard with a known fluorescence quantum yield (ϕ) value of 13% in DMSO (R. C. Benson, H. A. Kues, J. Chem. Eng. Data 1977, 22, 379-383). Fluorescence quantum yields were calculated using the following equation: ϕs/ϕf=(As/Af)×(Abss/Absf)×(ηs^2/ηf^2), Where ϕs and ϕf are the fluorescence quantum yields of the standard and the samples, respectively; As and Af are the emission areas of the standard and the samples, respectively; Abss and Absf are the absorbance of the standard and the samples at the wavelength of excitation; ηs and ηf are the refractive indices of the standard and the samples, respectively.

[4] = in 3 h, Patients; cited from earlier work

Row | Structure (SMILES) | renal clearance efficiency at 24 h post-injection [1] | Renal clearance efficiency (%) ([1]; Table 5) | biodistribution at 1 h post-injection (ex vivo NIRF) [2] | Stokes shift [3] | λab, wavelength of maximum absorbance ([3]; PBS pH 7.4) | λem, wavelength of maximum emission ([3]; PBS pH 7.4) | Renal clearance efficiency [4]
1 | C[N+]1=C(/C=C/C2=C3Oc4cc(O)ccc4C=C3CCC2)C(C)(C)c2ccccc21 [CMe] | nearly undetectable in urine | <5% | mainly accumulated in the liver, gallbladder, and intestine | 25 nm | 690 nm and 697 nm | 720 nm and 722 nm | –
2 | O=C([O-])CN=C([O-])CN=C([O-])CN=C([O-])C[S-].[O-2].[Tc+4] [^99mTc-MAG3] | – | – | – | – | – | – | 90% ID in 3 h

Source: patent publication US12296027B2, “Molecular renal probes for detecting acute kidney injury” (Nanyang Technological University, priority 2019, dated 2025)
